Assay results: article PMC9403987 (Frontiers in Oncology, 2022)

Legend:
[1] = mouse, in vivo, po, 100 mg/kg; cited from earlier work
[2] = system: BN2289; test: Subcutaneous BN2289 glioblastoma xenograft; format: in vivo, BALB/c nude mice; settings: 25 mg/kg daily oral, 28 days, measured day 21
Description: (§1) The efficacy of GLR2007 was evaluated in human GBM and breast cancer orthotopic cell-line-derived xenografts in NOD/SCID mice (Shanghai Lingchang Biotechnology Co. Ltd, Shanghai, China) and BALB/c nude mice (Shanghai Sino-British SIPPR/BK Laboratory Animal Co. Ltd, Shanghai, China), and human lung, colorectal, and liver cancer subcutaneous cell-line-derived xenografts in BALB/c nude mice (Nanjing University National Resource Center, Nanjing, China, or Beijing Anikeeper Biotech Co., Beijing, China). Mice were maintained in humidity- and temperature-controlled conditions with food and water available ad libitum. For subcutaneous models, female BALB/c nude mice were inoculated at 4–8 weeks old with 3×10^6–1×10^7 tumor cells (see Table 1 for xenograft model cell types) in the right flank for tumor development. Randomization was performed when the mean tumor volume reached 118–171 mm^3.

[3] = system: MCF-7 tumor cells; test: Orthotopic MCF-7 breast cancer xenograft; format: in vivo, NOD/SCID mice; settings: 25 mg/kg daily oral
Description: as §1, with “libitum.” for “libitum. For subcutaneous models, female BALB/c nude mice were inoculated at 4–8 weeks old with 3×10^6–1×10^7 tumor cells (see Table 1 for xenograft model cell types) in the right flank for tumor development. Randomization was performed when the mean tumor volume reached 118–171 mm^3.”
In two breast cancer orthotopic xenograft models, female NOD/SCID mice were subcutaneously implanted with an estrogen pellet (17β-estradiol; Innovative Research of America, Sarasota, FL, USA) one day before tumor inoculation. Mice were inoculated at 6–7 weeks old with 2×10^7 MCF-7 tumor cells plus Matrigel in a 1:1 ratio in PBS at a mammary fat pad or in the right flank. Randomization was performed when the mean tumor volume reached 135–138 mm^3.

[4] = system: NCI-H1975; test: Subcutaneous NCI-H1975 non-small cell lung cancer xenograft; format: in vivo, BALB/c nude mice; settings: 25 mg/kg daily oral, 22 days, measured day 16
Description: as §1

[5] = system: COLO 205; test: Subcutaneous COLO 205 colorectal cancer xenograft; format: in vivo, BALB/c nude mice; settings: 25 mg/kg daily oral, 26 days, measured day 25
Description: as §1

[6] = system: LI1088; test: Subcutaneous LI1088 liver cancer xenograft; format: in vivo, BALB/c nude mice; settings: 25 mg/kg daily oral, 28 days, measured day 25
Description: as §1

[7] = design: method as in PMID 26149830, PMID 20354191; settings: within 5 minutes after intravenous administration of 1 mg/kg; cited from earlier work

Compound	Kp,uu [1]	TGI (%) [2] [%]	TGI (%) ([3]; 21 days, measured day 21, 8 mice)	TGI (%) ([3]; 28 days, measured day 25, 10 mice)	TGI (%) [4] [%]	TGI (%) [5] [%]	TGI (%) [6] [%]	unbound brain-to-plasma partition coefficient (Kp,uu) [7]
CN(C)C(=O)c1cc2cnc(Nc3ccc(N4CCNCC4)cn3)nc2n1C1CCCC1 [ribociclib]	0.105	–	–	–	–	–	–	–
CC(=O)c1c(C)c2cnc(Nc3ccc(N4CCNCC4)cn3)nc2n(C2CCCC2)c1=O [Palbociclib, palbociclib, reference compound]	–	34.0	45.5	77.7	33.6	52.9	16.4	0.01
